Experimental data taken from US20170119776A1, “CHIRAL 2,5-DISUBSTITUTED CYCLOPENTANECARBOXYLIC ACID DERIVATIVES AND USE THEREOF” (BAYER PHARMA AKTIENGESELLSCHAFT, priority 2014, published 2017).

Legend:
MMP-2 of the mouse = molecular target: T1, MMP-2 of the mouse (Mus musculus, UniProt P33434); experiment: In vitro MMP-2 inhibition test of the mouse; assay type: biochemical
T1 construct: purchased R&D Systems 924-MP
From the text: The activity strength of the compounds according to the invention towards other MMPs (and therefore their selectivity) is likewise ascertained in in vitro inhibition tests. The MMP-mediated amidolytic cleavage of a suitable peptide substrate also leads here to a fluorescent light increase. The signal intensity of the fluorescent light is directly proportional to the enzyme activity. The active concentration of a test compound at which half of the enzyme is inhibited (50% signal intensity of the fluorescent light) is given as IC50 value.
Recombinant MMP-2 of the mouse (R&D Systems, 924-MP) is chemically activated in accordance with the manufacturer's instructions using APMA. 1 μl of the test compound to be analysed (as a solution in DMSO, suitable concentrations e.g. 1 nM to 30 μM) is pipetted into 24 μl of activated enzyme (final concentration e.g. 0.1 nM) in reaction buffer (50 mM Tris/HCl pH 7.5, 10 mM CaCl2, 150 mM NaCl, 0.05% Brij®-35) in a white 384-hole microtiter plate (MTP). The enzymatic reaction is started by adding the intramolecularly quenched substrate Mca-Pro-Leu-Gly-Leu-Dpa(Dnp)-Ala-Arg-NH2 (final concentration e.g. 10 μM; R&D Systems, ES-001), such that a total test volume of 50 μl results. The progress of the MMP-2 reaction is measured by measuring the fluorescence intensity (excitation 320 nm, emission 410 nm) over a suitable period (e.g. over 120 min at a temperature of 32° C.).
Tables 3A and 3B below give the IC50 values from these tests for the inhibition of rodent MMPs for representative embodiment examples of the present invention and also for two structurally related comparison compounds from the prior art (as racemate and separated enantiomer)→(in part as average values from several independent individual determinations and rounded to two significant places). The IC50 values were determined for racemates and enantiomers from differently generated DMSO stock solutions. Whereas an automatically created DMSO stock solution from the internal substance logistics was used for racemates by means of a standard method, in the case of enantiomers, in each case a freshly produced, manually prepared DMSO stock solution was used for a more precise direct comparison of the enantiomers with one another.

[1] = molecular target: T2, human macrophage elastase (HME/hMMP-12) (Homo sapiens, UniProt P39900); experiment: In vitro HME inhibition test in the presence of serum albumin (2% BSA); assay type: biochemical; settings: presence of serum albumin (BSA, 2% w/w)
T2 construct: 0.5 nM HME; purchased R&D Systems 917-MP
From the text: The activity of the compounds according to the invention towards HME (MMP-12) is ascertained in an in vitro inhibition test. The HME-mediated amidolytic cleavage of a suitable peptide substrate leads herein to a fluorescent light increase. The signal intensity of the fluorescent light is directly proportional to the enzyme activity. The active concentration of a test compound at which half of the enzyme is inhibited (50% signal intensity of the fluorescent light) is given as IC50 value.
This test corresponds to the standard HME inhibition test described above, but using a modified reaction buffer. This reaction buffer additionally comprises bovine serum albumin (BSA, fatty acid-free, A6003, Sigma-Aldrich) of a final concentration of 2% (w/w), which corresponds to approximately half of the physiological serum albumin content.
Table 1 below gives the IC50 values from these HME inhibition tests for the working examples of the present invention and also for two structurally related comparison compounds from the prior art (as racemate or separated enantiomers)→(sometimes as average values from several independent individual determinations and rounded to two significant places). The IC50 values were determined for racemates and enantiomers from differently generated DMSO stock solutions. Whereas an automatically created DMSO stock solution from the internal substance logistics was used for racemates by means of a standard method, for enantiomers and for a more precise direct comparison of the enantiomers with one another, in each case a freshly produced, manually prepared DMSO stock solution was used.

[2] = Pharmacokinetic investigations in vivo, rat; settings: Rat (Wistar)
Description: The substance to be examined is administered to rats, mice or dogs intravenously as a solution (for example in corresponding plasma with a small addition of DMSO or in a PEG/ethanol/water mixture), and peroral administration is effected as a solution (for example in Solutol/ethanol/water or PEG/ethanol/water mixtures) or as a suspension (e.g. in a water/tylose mixture), in each case via a gavage. After administration of the substance, blood is taken from the animals at fixed times. The blood is heparinized, then plasma is obtained therefrom by centrifugation. The test substance is quantified analytically in the plasma via LC-MS/MS. From the plasma concentration/time plots determined in this way, using an internal standard and with the aid of a validated computer program, the pharmacokinetic parameters, such as AUC (area under the concentration/time curve), Cmax (maximum plasma concentration), t1/2 (half life), VSS (distribution volume) and CL (clearance), and the absolute and relative bioavailability F and Frel (i.v./p.o. comparison or comparison of suspension to solution after p.o. administration), are calculated.

[3] = Hepatocyte assay for determining the metabolic stability; assay type: in vitro ADME; settings: incubation with rat hepatocytes; read-out: Fmax (maximum possible bioavailability, well-stirred)
Description: (§1) The metabolic stability of test compounds towards hepatocytes is determined by incubating the compounds at low concentrations (preferably below or around 1 μM) and at low cell counts (preferably at 1*10^6 cells/ml) in order to ensure the greatest possible linear kinetic conditions in the experiment. Seven samples from the incubation solution are removed within a stipulated time frame for the LC-MS analysis in order to determine the half life (i.e. the degradation) of the particular compound. This half life is used to calculate various “Clearance” parameters (CL) and “Fmax” values (see below).
(§2) The CL and Fmax values are a measure of the phase 1 and phase 2 metabolism of the compounds in the hepatocytes. In order to keep the influence of the organic solvent on the enzymes in the incubation mixtures as low as possible, its concentration is generally limited to 1% (acetonitrile) or 0.1% (DMSO).
(§3) For all species and races, a hepatocyte cell count in the liver of 1.1*10^8 cells/g of liver is estimated.
(§4) The calculated parameters and their meaning are: • Fmax well-stirred [%] Maximum possible bioavailability following oral application
(§5) Calculation: (1−CLblood well-stirred/QH)*100 • CLblood well-stirred [L/(h*kg)] Calculated blood clearance (well stirred model) […]

rat hepatocytes = experiment: as above; assay type: in vitro ADME; settings: incubation with rat hepatocytes
Description: as §1, §2, §3, §4, §5

T1 sequence (P33434 110-662): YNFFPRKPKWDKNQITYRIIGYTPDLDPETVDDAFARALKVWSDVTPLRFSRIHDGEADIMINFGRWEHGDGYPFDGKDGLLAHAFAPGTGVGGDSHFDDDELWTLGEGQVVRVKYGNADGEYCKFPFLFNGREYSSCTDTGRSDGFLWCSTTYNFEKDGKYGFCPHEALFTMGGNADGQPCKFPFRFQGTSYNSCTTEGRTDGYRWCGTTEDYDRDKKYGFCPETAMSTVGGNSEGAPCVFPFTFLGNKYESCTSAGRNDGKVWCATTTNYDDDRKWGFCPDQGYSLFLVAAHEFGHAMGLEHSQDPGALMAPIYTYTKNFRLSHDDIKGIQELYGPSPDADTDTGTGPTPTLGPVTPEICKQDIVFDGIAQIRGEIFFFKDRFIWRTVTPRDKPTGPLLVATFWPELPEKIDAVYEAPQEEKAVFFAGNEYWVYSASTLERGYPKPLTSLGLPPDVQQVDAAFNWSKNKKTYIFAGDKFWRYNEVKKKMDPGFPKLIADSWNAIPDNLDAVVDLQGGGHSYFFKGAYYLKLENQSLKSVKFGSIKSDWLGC
T2 sequence (P39900 106-470): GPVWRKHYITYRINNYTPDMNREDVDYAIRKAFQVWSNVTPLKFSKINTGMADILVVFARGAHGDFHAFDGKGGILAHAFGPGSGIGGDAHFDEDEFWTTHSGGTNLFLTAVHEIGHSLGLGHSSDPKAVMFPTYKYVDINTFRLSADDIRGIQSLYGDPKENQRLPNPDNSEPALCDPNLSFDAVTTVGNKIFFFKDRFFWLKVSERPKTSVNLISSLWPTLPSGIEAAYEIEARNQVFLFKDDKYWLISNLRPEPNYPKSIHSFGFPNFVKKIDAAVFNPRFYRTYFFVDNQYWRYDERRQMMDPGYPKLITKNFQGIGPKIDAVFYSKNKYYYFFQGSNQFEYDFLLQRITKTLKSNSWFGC

IC50 (MMP-2 of the mouse) [nM]	IC50 [1] [nM]	SMILES	other results
610	–	CCCCCOc1ccc(C(=O)CC(CCn2nnc3ccccc3c2=O)C(=O)O)cc1 (racemic) [Comparative Example B-1, (+/−)-4-Oxo-2-[2-(4-oxo-1,2,3-benzotriazin-3(4H)-yl)ethyl]-4-[4-(pentyloxy)phenyl]butanoic acid (racemate)]	–
145	170	CCCCCOc1ccc(C(=O)CC(CCn2nnc3ccccc3c2=O)C(=O)O)cc1 (single isomer, unassigned; enantiomer 1) [Comparative Example B-2, (+)-4-Oxo-2-[2-(4-oxo-1,2,3-benzotriazin-3(4H)-yl)ethyl]-4-[4-(pentyloxy)phenyl]butanoic acid (enantiomer 1)]	–
16.5	8.4	O=C(O)[C@H]1[C@H](Cn2nnc3ccccc3c2=O)CC[C@@H]1C(=O)c1ccc(OCc2ccccc2)cc1 [Example 2, (+)-(1S,2S,5R)-2-[4-(Benzyloxy)benzoyl]-5-[(4-oxo-1,2,3-benzotriazin-3(4H)-yl)methyl]cyclopentanecarboxylic acid]	F ([2]; bioavailability from solution): 100%; AUCnorm i.v. ([2]; i.v.): 93.6 kg·h/L; Frel ([2]; suspension vs solution p.o.): 97%; clearance ([2]; plasma, iv, read-out: CLPlasma CLblood (converted)): 0.183 mL/min/kg; half-life ([2]; plasma, po, p.o., read-out: t1/2 p.o. (converted)): 8.4 h; bioavailability [3]: 84.4%; CLblood (calculated blood clearance, well-stirred) (rat hepatocytes): 10.8 mL/min/kg

Continued, compound first:

SMILES	IC50 (MMP-2 of the mouse) [nM]	IC50 [1] [nM]	other results
O=C(O)[C@H]1[C@H](Cn2nnc3ccccc3c2=O)CC[C@@H]1C(=O)c1ccc(-c2ccc(Cl)cc2)cc1 (racemic) [Comparative Example A-1, (1RS,2RS,5SR)-2-[(4′-chlorobiphenyl-4-yl)carbonyl]-5-[(4-oxo-1,2,3-benzotriazin-3(4H)-yl)methyl]cyclopentanecarboxylic acid (racemate)]	1.3	–	–
O=C(O)[C@@H]1[C@@H](Cn2nnc3ccccc3c2=O)CC[C@H]1C(=O)c1ccc(-c2ccc(Cl)cc2)cc1 (single isomer, unassigned; enantiomer 2) [Comparative Example A-3, (1RS,2RS,5SR)-2-[(4′-Chlorobiphenyl-4-yl)carbonyl]-5-[(4-oxo-1,2,3-benzotriazin-3(4H)-yl)methyl]cyclopentanecarboxylic acid (enantiomer 2)]	< 0.61	5.4	–
O=C(O)[C@H]1[C@H](Cn2nnc3ccccc3c2=O)CC[C@@H]1C(=O)c1ccc(OCc2ccccc2)cc1 (racemic) [Example 1, (+/−)-(1RS,2RS,5SR)-2-[4-(Benzyloxy)benzoyl]-5-[(4-oxo-1,2,3-benzotriazin-3(4H)-yl)methyl]cyclopentanecarboxylic acid (racemate)]	33	–	–
